Test system: hESCs
Experiment: Cytokine matrix: serum-free EB hematopoietic differentiation, surface markers by flow cytometry
Type: cell-based, human
Description: Cells were collected from each well/condition and washed once with media. The cell pellet was digested using TrypLE™ or 0.5% trypsin for 5-10 minutes in a 37° C. incubator followed by washes with media and passage through a 70-μm cell strainer. […] Non-viable cells were excluded with 7-aminoactinomycin D (7-AAD, BD Biosciences). Live cell analysis was performed on a FACSCalibur™ or Accuri flow cytometer and Cell Quest software. hESCs adapted to feeder free growth on matrigel maintained using mTESR were preconditioned for three days in the presence of X-vivo-15 containing 0.1 ng/ml TGF-β and 20 ng/ml FGF-2. Cells were harvested using TrypLE for 6 minutes at 37 C. TrypLE™ was neutralized using EB basal media containing 1 μM ROCK inhibitor (H-1152), Soybean trypsin inhibitor (0.25 mg/ml). The cells were washed once in EB basal media containing 1 μM ROCK inhibitor and soybean trypsin inhibitor (0.25 mg/ml). The cells were plated in low attachment plates in EB basal media containing 1 μM ROCK inhibitor and soybean trypsin inhibitor (0.25 mg/ml). The media was changed the next day to EB basal media containing different cytokine formulations. […] The cytokine combinations used are listed below in Table 3. The EB cultures were half fed with fresh differentiation media every two days. The EB cultures were harvested on day 8, 12 and 17 of differentiation. The EB cultures were harvested by spinning down all the cells and digesting the EBs with TrypLE™ or 0.5% trypsin. The phenotype of the progenitor cell types was analyzed by flow cytometry and the cells were plated in methylcellulose media for CFU assays. “FLT3” refers to the Flt3 ligand below.

| Substance | CD31 expressing cells (DAY 8, factor ABSENT) | CD34 expressing cells (DAY 8, factor ABSENT) | CD43 expressing cells (DAY 8, factor ABSENT) | CD45 expressing cells (DAY 8, factor ABSENT) | FLK-1 expressing cells (DAY 8, factor ABSENT) | CD31 expressing cells (DAY 8, factor PRESENT) | CD34 expressing cells (DAY 8, factor PRESENT) | CD43 expressing cells (DAY 8, factor PRESENT) | CD45 expressing cells (DAY 8, factor PRESENT) | FLK-1 expressing cells (DAY 8, factor PRESENT) | CD31 expressing cells (DAY 12, factor ABSENT) | CD34 expressing cells (DAY 12, factor ABSENT) | CD43 expressing cells (DAY 12, factor ABSENT) | CD45 expressing cells (DAY 12, factor ABSENT) | FLK-1 expressing cells (DAY 12, factor ABSENT) | CD31 expressing cells (DAY 12, factor PRESENT) | CD34 expressing cells (DAY 12, factor PRESENT) | CD43 expressing cells (DAY 12, factor PRESENT) | CD45 expressing cells (DAY 12, factor PRESENT) | FLK-1 expressing cells (DAY 12, factor PRESENT) | further results |
| --- | --- | --- | --- | --- | --- | --- | --- | --- | --- | --- | --- | --- | --- | --- | --- | --- | --- | --- | --- | --- | --- |
| EPO: Erythropoietin | 0.8% | 1.2% | 1.0% | 0.2% | 2.2% | 0.7% | 1.1% | 0.8% | 0.2% | 1.7% | 2.2% | 2.4% | 2.1% | 2.6% | 0.8% | 1.8% | 2.0% | 2.4% | 1.5% | 0.2% | CD31 expressing cells (DAY 17, factor ABSENT): 4.6%; CD34 expressing cells (DAY 17, factor ABSENT): 2.5%; CD43 expressing cells (DAY 17, factor ABSENT): 5.0%; CD45 expressing cells (DAY 17, factor ABSENT): 4.8%; FLK-1 expressing cells (DAY 17, factor ABSENT): 1.6%; CD31 expressing cells (DAY 17, factor PRESENT): 8.8%; CD34 expressing cells (DAY 17, factor PRESENT): 2.4%; CD43 expressing cells (DAY 17, factor PRESENT): 9.1%; CD45 expressing cells (DAY 17, factor PRESENT): 8.9%; FLK-1 expressing cells (DAY 17, factor PRESENT): 2.1% |
| GMCSF: Granulocyte-macrophage colony-stimulating factor | 0.4% | 1.0% | 0.3% | 0.2% | 2.2% | 1.1% | 1.3% | 1.4% | 0.2% | 1.7% | 1.5% | 1.0% | 1.4% | 1.3% | 0.6% | 2.4% | 2.4% | 3.0% | 2.6% | 0.4% | CD31 expressing cells (DAY 17, factor ABSENT): 1.6%; CD34 expressing cells (DAY 17, factor ABSENT): 2.1%; CD43 expressing cells (DAY 17, factor ABSENT): 1.4%; CD45 expressing cells (DAY 17, factor ABSENT): 0.9%; FLK-1 expressing cells (DAY 17, factor ABSENT): 1.4%; CD31 expressing cells (DAY 17, factor PRESENT): 11.3%; CD34 expressing cells (DAY 17, factor PRESENT): 2.8%; CD43 expressing cells (DAY 17, factor PRESENT): 12.1%; CD45 expressing cells (DAY 17, factor PRESENT): 12.3%; FLK-1 expressing cells (DAY 17, factor PRESENT): 2.3%; role during EB differentiation (serum free hematopoietic differentiation, days 8, 12, 17): play a role during later stages of EB differentiation |
| IL6: Interleukin-6, a pro-inflammatory cytokine | 0.8% | 0.9% | 0.8% | 0.2% | 1.2% | 0.8% | 1.4% | 1.0% | 0.2% | 2.6% | 1.4% | 1.7% | 1.2% | 1.5% | 0.5% | 2.5% | 2.6% | 3.2% | 2.4% | 0.5% | CD31 expressing cells (DAY 17, factor ABSENT): 3.8%; CD34 expressing cells (DAY 17, factor ABSENT): 1.8%; CD43 expressing cells (DAY 17, factor ABSENT): 4.1%; CD45 expressing cells (DAY 17, factor ABSENT): 4.1%; FLK-1 expressing cells (DAY 17, factor ABSENT): 1.1%; CD31 expressing cells (DAY 17, factor PRESENT): 9.4%; CD34 expressing cells (DAY 17, factor PRESENT): 3.0%; CD43 expressing cells (DAY 17, factor PRESENT): 9.9%; CD45 expressing cells (DAY 17, factor PRESENT): 9.6%; FLK-1 expressing cells (DAY 17, factor PRESENT): 2.5% |
